Experimental data from paper PMC3057395 (ChemMedChem, 2009).
Read-outs that look alike come from different tables or passages of the source.

Molecular target: mouse PKCα (Mus musculus, UniProt P20444)
Test: PKC binding assay

Row | SMILES | Ki | Ki (read-out: Ki [nM] ± SEM)
1 | CC(=O)SCCCCCOc1ccc2c(c1)N(C)[C@@H](C(C)C)C(=O)N[C@H](CO)C2 [compound 11, Thioacetic acid S-[5-(5-hydroxymethyl-2-isopropyl-1-methyl-3-oxo-1,2,3,4,5,6-hexahydro-benzo[e] [1,4]diazocin-9-yloxy)-pentyl] ester] | 6.6 ± 0.2 nM | –
2 | C=CCCCCCOc1ccc2c(c1)N(C)[C@@H](C(C)C)C(=O)N[C@H](CO)C2 [compound 3, 9-Hept-6-enyloxy-5-hydroxymethyl-2-isopropyl-1-methyl-1,4,5,6-tetrahydro-2H-benzo[e][1,4] diazocin-3-one] | 5.4 ± 0.1 nM | –
3 | CC(=O)SCCCOc1ccc2c(c1)N(C)[C@@H](C(C)C)C(=O)N[C@H](CO)C2 [compound 9, Thioacetic acid S-[3-(5-hydroxymethyl-2-isopropyl-1-methyl-3-oxo-1,2,3,4,5,6-hexahydro-benzo[e] [1,4]diazocin-9-yloxy)-propyl] ester] | 21 ± 2.8 nM | –
4 | CC(C)[C@H]1C(=O)N[C@H](CO)Cc2ccc(O)cc2N1C [compound 2, 9-Hydroxy-5-hydroxymethyl-2-isopropyl-1-methyl-(2S,5S)-1,4,5,6-tetrahydro-2H-benzo[e][1,4] diazocin-3-one] | – | 4840 ± 320 nM
5 | CC(=O)SCCCCCCCOc1ccc2c(c1)N(C)[C@@H](C(C)C)C(=O)N[C@H](CO)C2 [compound 13, Thioacetic acid S-[7-(5-hydroxymethyl-2-isopropyl-1-methyl-3-oxo-1,2,3,4,5,6-hexahydrobenzo[e] [1,4]diazocin-9-yloxy)-heptyl] ester] | 4.5 ± 0.4 nM | –
6 | CC(=O)SCCCCOc1ccc2c(c1)N(C)[C@@H](C(C)C)C(=O)N[C@H](CO)C2 [compound 10, Thioacetic acid S-[4-(5-hydroxymethyl-2-isopropyl-1-methyl-3-oxo-1,2,3,4,5,6-hexahydro-benzo [e][1,4]diazocin-9-yloxy)-butyl] ester] | 15.8 ± 0.8 nM | –
7 | CC(=O)SCCCCCCCCOc1ccc2c(c1)N(C)[C@@H](C(C)C)C(=O)N[C@H](CO)C2 [compound 14, Thioacetic acid S-[8-(5-hydroxymethyl-2-isopropyl-1-methyl-3-oxo-1,2,3,4,5,6-hexahydro-benzo[e] [1,4]diazocin-9-yloxy)-octyl] ester] | 2.8 ± 0.5 nM | –
